# Columns and labels:
# [1] = tested on: BALB/c mice; type: in vivo; settings: female BALB/c mice
# Experimental: Female BALB/c mice, aged 10-12 wk, are housed in environmentally controlled specific pathogen-free conditions for 1 wk before study and for the duration of the experiments, which are performed according to J Appl Physiol, VOL 97, 2004, 2258-2265. Accordingly, mice are sensitized with intraperitoneal ovalbumin conjugated to aluminum potassium sulfate, as described in Am J Respir Cell Mol Biol 21: 473-479, 1999. Sensitized mice are subjected to either brief or chronic periods of allergen exposure, as described in Am J Respir Cell Mol Biol 27: 526-535, 2002. Control mice are subjected to the same sensitization protocol but are receiving saline challenges.
# Allergen-challenged and control mice are studied at 24 h after the final exposure (at day 21) in the brief allergen-challenge protocol and at week 4 after the final exposure in the chronic allergen-challenge protocol. […]
# At day 21 or week 4, respectively, the underlying contributors to airway responsiveness, namely airway reactivity [slope of increase in total respiratory system resistance (Rrs) for a given increase in MCh dose], airway sensitivity (lowest dose of MCh to produce bronchoconstriction), and the maximum inducible bronchoconstriction (maximum Rrs) are measured following brief or chronic allergen challenge. These components of airway responsiveness are measured based on the response of Rrs to saline and increasing (10, 33, 100, and 330 µg/kg) intravenous doses of MCh. Rrs is measured by using the flow interrupter technique, modified for use in mice, and described in Am J Respir Cell Mol Biol 21: 473-479, 1999, Am J Respir Cell Mol Biol 27: 526-535, 2002 and J Appl Physiol 89: 413-421, 2000. Total respiratory system resistance (Rrs) is measured in response to increasing doses of intravenous methacholine (MCh). Using the resulting Rrs-MCh dose-response curve, indexes of airway reactivity (Slope Rrs), airway sensitivity, or the lowest dose to produce bronchoconstriction (Break Rrs) and maximal degree of bronchoconstriction (Max Rrs) are measured. […]
# [2] = tested on: patient having asthma with recurring asthma attacks; assay: Treatment of an asthma patient with oral cladribine tablets; type: in vivo; settings: dosage regimen disclosed in WO2006067141
# Experimental: A patient having asthma with recurring asthma attacks is treated with oral cladribine tablets and following the dosage regimen disclosed in WO2006067141. As a result, the symptoms of asthma and airway hyperresponsiveness are reduced in this patient.
smiles,measurement,setting,value
"Nc1nc(Cl)nc2c1ncn2[C@H]1C[C@H](O)[C@@H](CO)O1 [cladribine, 2-chloro-9-(2'-deoxy-beta-D-ribofuranosyl)-adenine]","signs of asthma, increased airway reactivity and maximal bronchoconstriction","[1]; brief or chronic allergen exposure, cladribine intraperitoneally 15 mg/kg per injection, as compared to the control",beneficial to reduce
same,asthma related symptoms such as increased bronchoconstriction and allergen-induced development of AHR,"[1]; brief or chronic allergen exposure, cladribine intraperitoneally on days 1, 5 and 9, 15 mg/kg body weight per injection, versus phosphate buffer without cladribine",reduces or abrogates
same,host toxicity,"[1]; cladribine intraperitoneally on days 1, 5 and 9, 15 mg/kg body weight per injection",little or no host toxicity
same,symptoms of asthma and airway hyperresponsiveness,[2],reduced
